Results on one substance are retold here after patent US20260306657A1, “LIPOSOME CONJUGATE TARGETING M2 MACROPHAGE AND USE THEREOF” (HANGZHOU NORMAL UNIVERSITY, priority 2022, published 2026).

In general, IC50 refers to the concentration that inhibits the measured activity by half. Higher therefore signals weaker potency.

In assay [1] the test system is M2 macrophages. Nature of the assay: Cytotoxicity of ELE on M1 and M2 macrophages (CCK-8 method). In kind it is cell-based. The conditions noted are these: 24 h, at 5 concentrations (10-160 μg/mL), * P<0.05, n=3. As to the method:
(2) The toxicity of ELE on M1 and M2 macrophages was studied using the CCK-8 method. RAW264.7 cells were pre-treated to polarize into M1 and M2 macrophages, and the M1 and M2 macrophages (2×10^5 cells/well) were inoculated in a 96-well plate. After culturing for 24 h, the cells were treated with 100 μL of DMEM high-glucose media containing ELE (drug concentrations being 10 μg/mL, 20 μg/mL, 40 μg/mL, 80 μg/mL, and 160 μg/mL, respectively) for 24 h. ELE was dissolved and diluted in medium containing 1% % ethanol, and untreated cells were used as a control. 100 μL of 10% CCK-8 solution was added into each well and incubated for 2 h. The absorbance at 450 nm was measured using an enzyme-labeled instrument, and the IC 50 values of each group of drugs were calculated and analyzed using Graphpad Prism 9.0. A schematic diagram of the cytotoxicity of different concentrations of ELE on M1 and M2 macrophages is shown in FIG. 6, where n=3, x±SD, * P<0.05, *** P<0.001, **** P<0.0001.

Assay [2] relates to 4T1 breast cancer cells. As to the kind of experiment: Cytotoxicity on 4T1 breast cancer cells (CCK-8 method). Format: cell-based. The conditions noted are these: 24 h, CCK-8, n=3. As to the method:
Cytotoxicity Studies of Tumor-Targeted Liposomes:
(1) The toxicity of ELE to 4T1 breast cancer cells was studied using a CCK-8 method. 4T1 cells (2×10^4 cells/well) were inoculated in a 96-well plate. After culturing for 24 h, the cells were treated with RMPI-1640 media containing ELE, ELE/Lipo, ELE/Lipo-AS1411, and FA-ELE/Lipo-AS1411 (drug concentrations being 10 μg/mL, 20 μg/mL, 40 μg/mL, 80 μg/mL, and 160 μg/mL, respectively) for 24 h. ELE was dissolved and diluted in medium containing 1% 0 ethanol, and untreated cells were used as a control. 100 μL of 10% CCK-8 solution was added into each well and incubated for 2 h. The absorbance at 450 nm was measured using an enzyme-labeled instrument, and the IC50 value of each drug group was calculated and analyzed using Graphpad9.0. A schematic diagram of the cytotoxicity of different concentrations of free ELE, ELE/Lipo, ELE/Lipo-AS1411, and FA-ELE/Lipo-AS1411 on 4T1 cells was shown in FIG. 5, where n=3, x±SD, ** P<0.01, *** P<0.001, **** P<0.0001 (vs. ELE); #P<0.05, ###P<0.001 (vs. ELE/Lipo-AS1411).
(In general: Tetrazolium assays rely on reduction of a dye to a coloured formazan, in cell work by metabolically active cells.)

As for Elemene, in assay [1], the “toxic effect on M2 macrophages (vs. M1 macrophages)” value is “selective toxic effect on M2 macrophages”. The concentration for half-maximal inhibition (IC50) in assay [2] amounted to 921.4 µg/mL.
